These results are taken from patent US20180235221A1 (priority 2015, published 2018).

Experiment [1] relates to Qol resistant Septoria tritici isolate (3573). Put plainly: Microtest, activity against causal agent of leaf blotch Septoria tritici. The format is cell-based. As to conditions: single active compound, MTP, 405 nm, 7 days after inoculation.
Experiment [2] concerns Qol resistant Alternaria solani isolate (141). Briefly: Microtest, activity against early blight pathogen Alternaria solani. The format is cell-based. Particulars: single active compound, MTP, 405 nm, 7 days after inoculation.

Consider `CNC(=O)C(=N/OC)/C(C)=C\COc1ccn(-c2ccc(Cl)cc2)n1` [Compound I-1, (Z,2E)-5-[1-(4-chlorophenyl)pyrazol-3-yl]oxy-2-methoxyimino-N,3-dimethyl-pent-3-enamide], for which the Observed efficacy in experiment [1] (0.016 ppm) turned out to be 10%; in experiment [1] (0.063 ppm) it was 21%; in experiment [1] (0.25 ppm), 49%; in experiment [2] (0.25 ppm), 0%.

With `CNC(=O)C(=N/OC)/C(C)=C\COc1ccn(-c2ccc(Cl)cc2Cl)n1` [Compound I-3, (Z,2E)-5-[1-(2,4-dichlorophenyl)pyrazol-3-yl]oxy-2-methoxyimino-N,3-dimethyl-pent-3-en-amide], the Observed efficacy came to 10% in experiment [1] (0.016 ppm), 32% in experiment [1] (0.063 ppm), 0% in experiment [2] (0.063 ppm) and 0% in experiment [2] (0.25 ppm).

Consider `Cn1nnn(-c2cccc(Cl)c2COc2ccn(-c3ccc(Cl)cc3)n2)c1=O` [II-1, 1-[3-chloro-2[[1-(4-chlorophenyl)-1H-pyrazol-3-yl]oxymethyl]phenyl]-4-methyl-tetrazol-5-one], for which the Observed efficacy in experiment [1] (0.25 ppm) came out at 23%; in experiment [2] (0.016 ppm), 0%; in experiment [2] (0.063 ppm), 0%.

`Cn1nnn(-c2cccc(Br)c2COc2ccn(-c3ccc(Cl)cc3)n2)c1=O` [II-2, 1-[3-bromo-2-[[1-(4-chlorophenyl)pyrazol-3-yl]oxymethyl]phenyl]-4-methyl-tetrazol-5-one]: the Observed efficacy in experiment [2] (0.016 ppm), in experiment [2] (0.063 ppm) and in experiment [2] (0.25 ppm) was 0% each time.

For `Cc1cccc(-n2nnn(C)c2=O)c1COc1ccn(-c2ccc(Cl)cc2)n1` [II-3, 1-[2-[[1-(4-chlorophenyl)pyrazol-3-yl]oxymethyl]-3-methyl-phenyl]-4-methyl-tetrazol-5-one], the Observed efficacy in experiment [1] (0.25 ppm) was determined as 17%; in experiment [2] (0.016 ppm) it was 0%.

Take `Cn1nnn(-c2cccc(F)c2COc2ccn(-c3ccc(Cl)cc3)n2)c1=O` [II-4, 1-[2-[[1-(4-chlorophenyl)pyrazol-3-yl]oxymethyl]-3-fluoro-phenyl]-4-methyl-tetrazol-5-one]: the Observed efficacy in experiment [2] (0.016 ppm) and in experiment [2] (0.063 ppm) was 0% in each case.

On to `Cn1nnn(-c2cccc(F)c2COc2ccn(-c3ccc(Cl)cc3Cl)n2)c1=O` [II-5, 1-[2-[[1-(2,4-dichlorophenyl)pyrazol-3-yl]oxymethyl]-3-fluoro-phenyl]-4-methyl-tetrazol-5-one], for which the Observed efficacy in experiment [2] (0.016 ppm) amounted to 6%.

With `CC(=NOCc1c(C)cccc1-n1nnn(C)c1=O)c1cccc(C(F)(F)F)c1` [II-11, -methyl-4-[3-methyl-2-[[1-[3-(trifluoromethyl)-phenyl]-ethylideneamino]oxymethyl]phenyl]tetrazol-5-one], the Observed efficacy in experiment [2] (0.016 ppm) is reported as 0%; in experiment [2] (0.063 ppm), 0%; in experiment [2] (0.25 ppm), 15%.
